Assay results taken from US20240010606A1, “FUMARATE DERIVATIVES AND THEIR MEDICAL USE” (Sitryx Therapeutics Limited, priority 2020, published 2024).

What was measured:
IL-1β = test: THP-1 AlphaLISA IL-1β cytokine assay; type: cell-based; details: Homo sapiens; differentiated THP-1 cells, LPS then Nigericin; Table 1
Description: Biological Example 1—THP-1 AlphaLISA IL-1β and IL-6 Cytokine Assay Measuring Inhibitory Effects on IL-1, and IL-6 Cytokine Output from THP-1s The cytokine inhibition profiles of compounds of formula (I) were determined in a differentiated THP-1 cell assay. All assays were performed in RPMI-1640 growth medium (Gibco), supplemented with 10% fetal bovine serum (FBS; Gibco), 1% penicillin-streptomycin and 1% sodium pyruvate unless specified otherwise. The IL-1β and IL-6 cytokine inhibition assays were each run in a background of differentiated THP-1 cells as described below. All reagents described were from Sigma-Aldrich unless specified otherwise. Compounds were prepared as 10 mM DMSO stocks. THP-1 cells were expanded as a suspension up to 80% confluence in appropriate growth medium. Cells were harvested, suspended, and treated with an appropriate concentration of phorbol 12-myristate 13-acetate (PMA) over a 72 hr period (37° C./5% CO2). Following 72 hrs of THP-1 cell incubation, cellular medium was removed and replaced with fresh growth media containing 1% of FBS. Working concentrations of compounds were prepared separately in 10% FBS treated growth medium and pre-incubated with the cells for 30 minutes (37° C./5% CO2). Following the 30 minute compound pre-incubation, THP-1s were treated with an appropriate concentration of LPS and the THP-1s were subsequently incubated for a 24 hr period (37° C./5% CO2). An appropriate final concentration of Nigericin was then dispensed into the THP-1 plates and incubated for 1 hour (37° C./5% CO2) before THP-1 supernatants were harvested and collected in separate polypropylene 96-well holding plates. Reagents from each of the IL-1β and IL-6 commercial kits (Perkin Elmer) were prepared and run according to the manufacturer's instructions. Subsequently, fluorescence signal detection in a microplate reader was measured (EnVision® Multilabel Reader, Perkin Elmer). Percentage inhibition was calculated per cytokine by normalizing the sample data to the high and low controls used within each plate (+/−LPS respectively). Percentage inhibition was then plotted against compound concentration and the 50% inhibitory concentration (IC50) was determined from the resultant concentration-response curve.

hepatocytes [1] = test: Hepatocyte stability assay, human; type: in vitro ADME; details: 10 μM compound, Table 5
From the text: (§1) Biological Example 3—Hepatocyte Stability Assay
(§2) Defrosted cryo-preserved hepatocytes (viability >70%) are used to determine the metabolic stability of a compound via calculation of intrinsic clearance (CIint; a measure of the removal of a compound from the liver in the absence of blood flow and cell binding). Clearance data are particularly important for […] as they can be used in combination with in vivo data to predict the half-life and oral bioavailability of a drug.
(§3) The metabolic stability in hepatocytes assay involves a time-dependent reaction using both positive and negative controls. The cells must be pre-incubated at 37° C. then spiked with test compound (and positive control); samples taken at pre-determined time intervals are analysed to monitor the change in concentration of the initial drug compound over 60 minutes. A buffer incubation reaction (with no hepatocytes present) acts as a negative control and two cocktail solutions, containing compounds with known high and low clearance values (verapamil/7-hydroxycoumarin and propranolol/diltiazem), act as positive controls. • 1. The assay is run with a cell concentration of 0.5×10^6 cells/mL in Leibovitz buffer. • 2. All compounds and controls are run in duplicate. • 3. Compound concentration is 10 μM. • 4. All compounds and controls are incubated with both cells and buffer to show turnover is due to hepatic metabolism. • 5. All wells on the incubation plate will have 326.7 μL of either cells or buffer added. • 6. Prior to assay, cell and buffer-only incubation plates are preincubated for 10 mins at 37° C. • 7. The assay is initiated by adding compounds, 3.3 μL of 1 mM in 10% DMSO-90% Buffer; final DMSO concentration is 0.1%. • 8. Samples are taken at regular timepoints (0, 5, 10, 20, 40, 60 min) until 60 mins. • 9. Sample volume is 40 μL and it is added to 160 μL of crash solvent (acetonitrile with internal standard) and stored on ice. • 10. At the end of the assay, the crash plates are centrifuged at 3500 rpm for 20 mins at 4° C. • 11. 80 μL of clear supernatant is removed and mixed with 80 μL of deionised water before being analysed by LC-MS/MS.
(§4) Raw LC-MS/MS data are exported to, and analysed in, Microsoft Excel for determination of intrinsic clearance. The percentage remaining of a compound is monitored using the peak area of the initial concentration as 100%. Intrinsic clearance and half-life values are calculated using a graph of the natural log of percentage remaining versus the time of reaction in minutes. Half-life (min) and intrinsic clearance (CIint in μL min^−1 10^−6 cells) values are calculated using the gradient of the graph (the elimination rate constant, k) and Equations 1 and 2.

[2] = Hepatocyte stability assay, human; type: in vitro ADME; details: cryopreserved hepatocytes, 10 μM compound, Table 5, read-out: T½
From the text: as §1, §2, §3, §4

hepatocytes [3] = test: Hepatocyte stability assay, mouse; type: in vitro ADME; details: 10 μM compound, Table 5
From the text: as §1, §2, §3, §4

[4] = Hepatocyte stability assay, mouse; type: in vitro ADME; details: mouse, cryopreserved hepatocytes, 10 μM compound, Table 5, read-out: T½
From the text: as §1, §2, §3, §4

NRF2 = NRF2 activation assay (DiscoverX PathHunter NRF2 translocation kit, U2OS cells); type: cell-based; details: Table 3; for NRF2 activation Emax: normalised to dimethyl fumarate high control
Description: Biological Example 2—NRF2 Activation Assay Measuring Compound Activation Effects on the Anti-Inflammatory Transcription Factor NRF2 in DiscoverX PathHunter NRF2 Translocation Kit Potency and efficacy of compounds of formula (I) against the target of interest to activate NRF2 (nuclear factor erythroid 2-related factor 2) were determined using the PathHunter NRF2 translocation kit (DiscoverX). The NRF2 translocation assay was run using an engineered recombinant cell line, utilising enzyme fragment complementation to determine activation of the Keap1-NRF2 protein complex and subsequent translocation of NRF2 into the nucleus. Enzyme activity was quantified using a chemiluminescent substrate consumed following the formation of a functional enzyme upon PK-tagged NRF2 translocation into the nucleus. Additionally, a defined concentration of dimethyl fumarate was used as the ‘High’ control to normalise test compound activation responses to. U2OS PathHunter eXpress cells were thawed from frozen prior to plating. Following plating, U2OS cells were incubated for 24 hrs (37° C./5% CO2) in commercial kit provided cell medium. Following 24 hrs of U2OS incubation, cells were directly treated with an appropriate final concentration of compound. Following compound treatment, the U2OS plates were incubated for a further 6 hours (37° C./5% CO2) before detection reagent from the PathHunter NRF2 commercial kit was prepared and added to test plates according to the manufacturer's instructions. Subsequently, the luminescence signal detection in a microplate reader was measured (PHERAstar®, BMG Labtech). Percentage activation was calculated by normalising the sample data to the high and low controls used within each plate (+/−DMF). Percentage activation/response was then plotted against compound concentration and the 50% activation concentration (EC50) was determined from the plotted concentration-response curve.

SMILES	IC50 (IL-1β)	CIint (hepatocytes [1])	half-life at 10 μM [2]	CIint (hepatocytes [3])	half-life at 10 μM [4]	EC50 (NRF2; +GSH)	NRF2 activation Emax (NRF2; +GSH)	EC50 (NRF2; −GSH)	NRF2 activation Emax (NRF2; −GSH)
O=C(O)COC(=O)/C=C/C(=O)OC1CC2(CCC2)C1 [Example 9, (E)-2-((4-oxo-4-(spiro[3.3]heptan-2-yloxy)but-2-enoyl)oxy)acetic acid]	2.5 to 6.1 µM	++++ (++++ means <50)	30 to 100 min	+ (+ means >277)	< 5 min				
O=C(O)COC(=O)/C=C/C(=O)OC1CCCCCC1 [Example 10, (E)-2-((4-(cycloheptyloxy)-4-oxobut-2-enoyl)oxy)acetic acid]	< 2.5 µM	++++ (++++ means <50)	30 to 100 min	+ (+ means >277)	< 5 min				
CC(CC(=O)O)OC(=O)/C=C/C(=O)OC1CCCCCCC1 (stereo not shown) [Example 11, (E)-3-((4-(cyclooctyloxy)-4-oxobut-2-enoyl)oxy)butanoic acid]	< 2.5 µM	+++ (+++ means 50-149)	5 to 29 min	+ (+ means >277)	< 5 min	20 to 100 µM	+ (+ means >17.1-99)	< 2 µM	++++ (++++ means 200-250%)
C[C@@H](OC(=O)/C=C/C(=O)OC1CCCCCCC1)C(=O)O [Example 12, (R,E)-2-((4-(cyclooctyloxy)-4-oxobut-2-enoyl)oxy)propanoic acid]	< 2.5 µM	++++ (++++ means <50)	> 100 min	+ (+ means >277)	< 5 min	6 to 20 µM	++ (++ means 100-149)	< 2 µM	++++ (++++ means 200-250%)
CCCCCC[C@@H](C)OC(=O)/C=C/C(=O)OCC(=O)O [Example 13, 2-[(E)-4-[(1R)-1-methylheptoxy]-4-oxo-but-2-enoyl]oxyacetic acid]	2.5 to 6.1 µM	+++ (+++ means 50-149)	5 to 29 min	+ (+ means >277)	< 5 min	20 to 100 µM	++ (++ means 100-149)	< 2 µM	+++ (+++ means 150-199%)
CCCCCC[C@@H](C)OC(=O)/C=C/C(=O)OCCC(=O)O [Example 14, (R,E)-3-((4-(octan-2-yloxy)-4-oxobut-2-enoyl)oxy)propanoic acid]	< 2.5 µM	+ (+ means >277)	< 5 min	+ (+ means >277)	< 5 min	6 to 20 µM	++ (++ means 100-149)	2.1 to 6 µM	+++ (+++ means 150-199%)
